Where two headings read alike, the source gives them in different places.
Legend:
[1] = system: HL-7702 cells; experiment: inhibitory activity on normal cells, HL-7702; assay type: cell-based; conditions: Homo sapiens, L02
Description: (§1) Several clinical PI3K candidates were severely intolerable to patients due to fatal hepatotoxicity and, thus, failed in clinical trials. Thus, evaluating the selectivity of compounds toward normal cells might reduce the risk of clinical failure of new compounds.

[2] = system: MRC-5 cells; experiment: inhibitory activity on normal cells, MRC-5; assay type: cell-based; conditions: Homo sapiens, MRC5
Description: as §1

[3] = system: DU145 cells; experiment: MTT antiproliferative assay, DU145; assay type: cell-based; conditions: for IC50: Homo sapiens, DU-145
Experimental: (§2) The in vitro inhibition assays of all final compounds against PI3K were performed by Shanghai ChemPartner Co., Ltd. (China). The antiproliferative activities of the compounds against A2780, U87MG, MCF7, and DU145 cell lines were tested by the standard MTT method. CHO cells stably expressing the transcript of hERG were investigated by the automated whole-cell patch clamp technique, using the QPatch system (Sophion). The compound was tested with Salmonella typhimurium strains TA98 and TA100 with the plate incorporation method at seven doses. Apoptosis was evaluated using the One-Step TUNEL Apoptosis Assay Kit (FITC) (cat. no. MA0223; Meilunbio, Dalian, China), according to the manufacturer’s protocol. Male and female SD rats (SLRC Laboratory Animal Inc., Shanghai, China) were used, and the detailed pharmacokinetic procedures are described in Supplementary Material.

[4] = molecular target: PI3Kβ (Homo sapiens, UniProt P42338); experiment: in vitro PI3Kβ inhibition assay (isoform selectivity); assay type: biochemical; conditions: Table 4
Experimental: as §2

[5] = molecular target: PI3Kα (Homo sapiens, UniProt P42336); experiment: in vitro PI3Kα kinase inhibition assay; assay type: biochemical
Experimental: as §2

[6] = molecular target: PI3Kδ (Homo sapiens, UniProt O00329); experiment: in vitro PI3Kδ inhibition assay (isoform selectivity); assay type: biochemical; conditions: Table 4
Experimental: as §2

[7] = system: A2780 cells; experiment: MTT antiproliferative assay, A2780; assay type: cell-based; conditions: Homo sapiens
Experimental: as §2

[8] = system: MCF7 cells; experiment: MTT antiproliferative assay, MCF7; assay type: cell-based; conditions: Homo sapiens
Experimental: as §2

[9] = system: U87MG cells; experiment: MTT antiproliferative assay, U87MG; assay type: cell-based; conditions: for IC50: Homo sapiens, U-87 MG
Experimental: as §2

[10] = molecular target: mTOR (Homo sapiens, UniProt P42345); experiment: in vitro mTOR inhibition assay (selectivity); assay type: biochemical; conditions: Table 4
Experimental: as §2

[11] = molecular target: PI3Kγ (Homo sapiens, UniProt P48736); experiment: in vitro PI3Kγ inhibition assay (isoform selectivity); assay type: biochemical; conditions: Table 4
Experimental: as §2

[12] = molecular target: T1, hERG potassium currents (Homo sapiens, UniProt Q12809); experiment: hERG automated whole-cell patch clamp (QPatch), CHO cells; assay type: cell-based; conditions: in words
T1 construct: expressed in transfected cells
Experimental: as §2
(§3) To evaluate cardiotoxicity, it is necessary to test inhibitory activity on hERG potassium currents.

[13] = molecular target: T2, hERG (Homo sapiens, UniProt Q12809); experiment: as above; assay type: cell-based; conditions: human, CHO cells stably expressing hERG; CHO cells expressing hERG, patch clamp; read-out: IC50 on hERG potassium currents
T2 construct: expressed in transfected cells
Experimental: as §2, §3

[14] = liver microsome stability, human; assay type: in vitro ADME; conditions: liver microsomes
Experimental: (§4) The metabolic stability of 17p was evaluated in liver microsome assays, which measure clearance and half-life in rats and humans.

[15] = liver microsome stability, rat; assay type: in vitro ADME; conditions: liver microsomes
Experimental: as §4

[16] = system: Salmonella typhimurium TA98; experiment: Ames test, plate incorporation, TA98; assay type: cell-based
Experimental: as §2
(§5) S. typhimurium TA98 and TA100 were selected to conduct the Ames experiment to investigate the genotoxicity risk of compound 17p.

[17] = pharmacokinetics in SD rats; assay type: in vivo; parameters: area under the curve: unit not given here; conditions: for AUC(0-t) / Cmax / half-life / Tmax / bioavailability: rat, plasma; for bioavailability: read-out: F (oral bioavailability)
Experimental: as §2
According to the good in vitro properties of compound 17p, we performed pharmacokinetic analyses in male and female SD rats at doses of 10 (po) and 2.5 mg/kg (iv), respectively (Table 9). The pharmacokinetic properties in male and female SD rats were […]. […] Thus, compound 17p had favorable pharmacokinetic properties.

[18] = system: Salmonella typhimurium TA100; experiment: Ames test, plate incorporation, TA100; assay type: cell-based
Experimental: as §2, §5

[19] = system: A2780 cells; experiment: TUNEL apoptosis assay in A2780; assay type: cell-based; conditions: 24 h treatment
Experimental: as §2
The ED50 value of 17p cytotoxicity was determined using a multiple logistic regression model.

[20] = Figure 5 activity bins, read-out: IC50 range in SAR figure (PI3Kα)
[21] = Table 4, read-out: IC50 PI3Kα (isoform selectivity study)
[22] = mean of three independent experiments, read-out: IC50 against PI3Kα
[23] = Figure 5 activity bins, read-out: weak activity IC50 in SAR figure (PI3Kα)
[24] = read-out: T1/2 liver microsomes

Sequence of PI3Kβ (P42338 whole entry, canonical isoform): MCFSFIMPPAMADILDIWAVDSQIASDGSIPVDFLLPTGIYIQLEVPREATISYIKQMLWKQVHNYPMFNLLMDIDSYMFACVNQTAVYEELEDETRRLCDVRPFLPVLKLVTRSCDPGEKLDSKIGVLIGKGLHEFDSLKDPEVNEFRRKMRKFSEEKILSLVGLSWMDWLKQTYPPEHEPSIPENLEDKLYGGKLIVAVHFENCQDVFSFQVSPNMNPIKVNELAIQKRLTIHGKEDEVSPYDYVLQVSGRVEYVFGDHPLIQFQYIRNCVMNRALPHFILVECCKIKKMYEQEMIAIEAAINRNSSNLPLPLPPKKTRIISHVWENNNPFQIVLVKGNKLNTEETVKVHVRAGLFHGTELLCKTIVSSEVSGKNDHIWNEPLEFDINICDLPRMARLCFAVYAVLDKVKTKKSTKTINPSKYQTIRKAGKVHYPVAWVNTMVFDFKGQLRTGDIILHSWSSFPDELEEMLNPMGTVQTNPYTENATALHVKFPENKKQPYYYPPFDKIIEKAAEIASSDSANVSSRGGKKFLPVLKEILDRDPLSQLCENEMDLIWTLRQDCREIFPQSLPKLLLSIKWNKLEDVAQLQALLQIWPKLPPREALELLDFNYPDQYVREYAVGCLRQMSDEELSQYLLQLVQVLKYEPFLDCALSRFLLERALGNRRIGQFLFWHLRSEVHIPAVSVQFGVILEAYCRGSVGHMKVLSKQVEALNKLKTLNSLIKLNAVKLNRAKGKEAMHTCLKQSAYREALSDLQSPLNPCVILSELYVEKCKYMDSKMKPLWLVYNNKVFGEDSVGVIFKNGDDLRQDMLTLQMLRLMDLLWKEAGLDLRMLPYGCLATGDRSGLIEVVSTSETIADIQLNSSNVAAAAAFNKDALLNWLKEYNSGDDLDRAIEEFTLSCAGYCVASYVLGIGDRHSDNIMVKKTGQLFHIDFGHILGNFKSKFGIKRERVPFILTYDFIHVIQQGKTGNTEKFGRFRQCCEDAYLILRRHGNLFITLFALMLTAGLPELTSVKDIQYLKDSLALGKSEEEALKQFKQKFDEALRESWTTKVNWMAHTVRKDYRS
Sequence of PI3Kβ (P27986 whole entry partner, canonical isoform): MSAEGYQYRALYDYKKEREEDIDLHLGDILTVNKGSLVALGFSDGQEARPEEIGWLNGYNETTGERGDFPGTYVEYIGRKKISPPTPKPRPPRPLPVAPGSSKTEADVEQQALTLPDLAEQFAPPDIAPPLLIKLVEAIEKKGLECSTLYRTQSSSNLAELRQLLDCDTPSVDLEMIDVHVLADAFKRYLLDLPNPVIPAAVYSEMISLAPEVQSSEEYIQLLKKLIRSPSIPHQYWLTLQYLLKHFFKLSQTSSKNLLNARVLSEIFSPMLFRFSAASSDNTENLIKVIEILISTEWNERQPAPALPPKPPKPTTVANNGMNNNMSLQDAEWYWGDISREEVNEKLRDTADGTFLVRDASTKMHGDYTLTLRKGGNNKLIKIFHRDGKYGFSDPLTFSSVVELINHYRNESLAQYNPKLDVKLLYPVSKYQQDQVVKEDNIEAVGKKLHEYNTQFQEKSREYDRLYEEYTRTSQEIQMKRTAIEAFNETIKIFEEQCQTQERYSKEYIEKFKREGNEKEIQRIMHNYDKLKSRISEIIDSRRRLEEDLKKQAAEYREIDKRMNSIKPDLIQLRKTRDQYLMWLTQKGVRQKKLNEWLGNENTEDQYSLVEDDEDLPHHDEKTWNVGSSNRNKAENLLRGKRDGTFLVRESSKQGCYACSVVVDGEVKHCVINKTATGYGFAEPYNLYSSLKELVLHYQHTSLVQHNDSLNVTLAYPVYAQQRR
Sequence of PI3Kγ (P48736 whole entry, canonical isoform): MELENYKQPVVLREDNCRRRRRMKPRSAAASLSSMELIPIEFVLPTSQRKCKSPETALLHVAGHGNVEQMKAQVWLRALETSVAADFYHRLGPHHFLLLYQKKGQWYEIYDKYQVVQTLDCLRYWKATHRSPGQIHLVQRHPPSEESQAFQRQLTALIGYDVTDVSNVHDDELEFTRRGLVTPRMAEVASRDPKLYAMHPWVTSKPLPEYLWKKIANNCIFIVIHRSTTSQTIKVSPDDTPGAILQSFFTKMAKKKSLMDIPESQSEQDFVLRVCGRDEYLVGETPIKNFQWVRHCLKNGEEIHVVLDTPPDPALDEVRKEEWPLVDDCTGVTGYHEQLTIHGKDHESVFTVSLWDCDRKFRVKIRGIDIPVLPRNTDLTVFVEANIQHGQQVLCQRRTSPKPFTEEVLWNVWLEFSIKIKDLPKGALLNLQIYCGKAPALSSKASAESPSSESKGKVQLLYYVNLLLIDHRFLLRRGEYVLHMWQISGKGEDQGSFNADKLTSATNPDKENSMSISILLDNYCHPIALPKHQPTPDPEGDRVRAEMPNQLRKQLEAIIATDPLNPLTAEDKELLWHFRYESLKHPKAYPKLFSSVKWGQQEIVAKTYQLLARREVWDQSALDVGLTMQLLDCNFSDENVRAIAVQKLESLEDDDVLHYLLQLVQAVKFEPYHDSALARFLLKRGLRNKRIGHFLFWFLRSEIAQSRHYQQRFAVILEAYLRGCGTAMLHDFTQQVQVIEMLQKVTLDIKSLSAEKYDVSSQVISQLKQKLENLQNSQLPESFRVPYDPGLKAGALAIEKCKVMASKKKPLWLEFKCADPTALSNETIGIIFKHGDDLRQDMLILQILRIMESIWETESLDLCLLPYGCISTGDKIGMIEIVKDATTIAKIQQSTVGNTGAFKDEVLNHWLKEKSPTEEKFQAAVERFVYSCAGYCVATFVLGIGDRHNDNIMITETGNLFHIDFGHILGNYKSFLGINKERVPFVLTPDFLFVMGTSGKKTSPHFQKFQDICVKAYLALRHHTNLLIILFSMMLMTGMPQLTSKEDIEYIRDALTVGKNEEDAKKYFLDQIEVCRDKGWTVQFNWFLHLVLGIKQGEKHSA
Sequence of PI3Kδ (O00329 whole entry, canonical isoform): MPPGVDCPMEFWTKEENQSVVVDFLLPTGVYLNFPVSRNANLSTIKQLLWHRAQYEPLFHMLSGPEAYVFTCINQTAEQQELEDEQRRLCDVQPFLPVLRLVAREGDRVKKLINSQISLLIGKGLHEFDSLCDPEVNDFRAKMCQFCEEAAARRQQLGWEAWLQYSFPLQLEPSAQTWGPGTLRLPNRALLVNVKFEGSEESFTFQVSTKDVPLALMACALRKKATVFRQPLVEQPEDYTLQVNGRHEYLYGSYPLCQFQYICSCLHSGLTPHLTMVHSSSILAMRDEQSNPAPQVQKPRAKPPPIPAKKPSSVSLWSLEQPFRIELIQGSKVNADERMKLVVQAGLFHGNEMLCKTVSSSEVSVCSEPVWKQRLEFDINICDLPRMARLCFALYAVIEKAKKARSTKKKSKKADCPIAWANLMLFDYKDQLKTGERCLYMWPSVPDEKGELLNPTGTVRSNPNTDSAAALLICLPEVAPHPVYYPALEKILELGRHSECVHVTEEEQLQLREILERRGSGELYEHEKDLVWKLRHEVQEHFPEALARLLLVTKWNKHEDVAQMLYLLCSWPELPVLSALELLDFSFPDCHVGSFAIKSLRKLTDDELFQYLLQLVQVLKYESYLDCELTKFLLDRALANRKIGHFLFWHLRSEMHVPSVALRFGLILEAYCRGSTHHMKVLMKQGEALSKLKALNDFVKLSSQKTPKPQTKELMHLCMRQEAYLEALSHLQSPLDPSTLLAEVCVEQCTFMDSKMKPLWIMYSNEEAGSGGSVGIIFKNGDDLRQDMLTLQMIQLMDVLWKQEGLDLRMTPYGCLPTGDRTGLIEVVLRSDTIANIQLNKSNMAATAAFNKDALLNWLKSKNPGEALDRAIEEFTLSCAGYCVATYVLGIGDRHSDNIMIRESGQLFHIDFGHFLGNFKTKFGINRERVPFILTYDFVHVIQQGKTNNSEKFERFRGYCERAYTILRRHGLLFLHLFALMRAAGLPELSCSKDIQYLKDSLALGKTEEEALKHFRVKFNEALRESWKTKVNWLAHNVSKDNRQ
Sequence of PI3Kδ (P27986 whole entry partner, canonical isoform): as the sequence (P27986 whole entry partner, canonical isoform) above
Sequence of PI3Kα (P42336 whole entry): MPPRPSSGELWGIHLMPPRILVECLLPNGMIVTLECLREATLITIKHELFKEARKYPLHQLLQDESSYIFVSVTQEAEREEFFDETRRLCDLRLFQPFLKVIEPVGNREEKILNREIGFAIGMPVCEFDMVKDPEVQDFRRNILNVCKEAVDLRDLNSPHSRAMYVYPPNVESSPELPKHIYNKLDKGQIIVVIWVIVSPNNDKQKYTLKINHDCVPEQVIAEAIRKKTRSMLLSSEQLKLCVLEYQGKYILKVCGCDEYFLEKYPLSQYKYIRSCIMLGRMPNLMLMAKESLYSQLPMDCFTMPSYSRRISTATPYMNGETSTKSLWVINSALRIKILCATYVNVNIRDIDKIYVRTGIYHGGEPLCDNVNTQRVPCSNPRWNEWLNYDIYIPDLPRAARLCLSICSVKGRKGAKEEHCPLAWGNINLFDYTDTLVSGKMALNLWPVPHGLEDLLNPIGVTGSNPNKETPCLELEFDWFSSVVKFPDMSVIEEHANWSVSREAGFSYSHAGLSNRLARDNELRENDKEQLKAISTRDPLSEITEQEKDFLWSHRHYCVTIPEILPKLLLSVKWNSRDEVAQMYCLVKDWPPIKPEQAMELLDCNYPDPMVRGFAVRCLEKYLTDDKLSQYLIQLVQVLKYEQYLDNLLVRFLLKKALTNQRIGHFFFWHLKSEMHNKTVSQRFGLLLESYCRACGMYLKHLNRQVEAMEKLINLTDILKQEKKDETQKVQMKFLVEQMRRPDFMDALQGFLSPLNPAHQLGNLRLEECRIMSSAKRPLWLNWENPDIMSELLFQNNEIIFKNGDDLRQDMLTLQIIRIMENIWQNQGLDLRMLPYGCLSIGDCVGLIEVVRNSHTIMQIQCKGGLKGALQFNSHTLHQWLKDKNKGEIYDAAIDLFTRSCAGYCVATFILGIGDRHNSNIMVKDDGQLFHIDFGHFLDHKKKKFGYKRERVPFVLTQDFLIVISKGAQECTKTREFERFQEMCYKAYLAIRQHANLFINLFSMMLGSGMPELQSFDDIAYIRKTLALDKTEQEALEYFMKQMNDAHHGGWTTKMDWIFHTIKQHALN
Sequence of PI3Kα (P27986 whole entry partner): as the sequence (P27986 whole entry partner, canonical isoform) above

SMILES: N#Cc1c(-c2cccc(O)c2)nc(N2CCOCC2)nc1N1CCOCC1 [Compound 17e]
- IC50 [1]: 6170 ± 750 nM
- IC50 [2]: 2190 ± 110 nM
- IC50 [3]: 1520 ± 110 nM
- IC50 [4]: 152 ± 18.7 nM
- IC50 [5, 20]: 30 to 300 nM
- IC50 [5, 21]: 86.1 ± 7.8 nM
- IC50 [5, 22]: 88.5 ± 6.1 nM
- IC50 [6]: 55.6 ± 3.8 nM
- IC50 [7]: 390 ± 30 nM
- IC50 [8]: 370 ± 30 nM
- IC50 [9]: 1750 ± 220 nM
- IC50 [10]: > 10000 nM
- IC50 [11]: 318 ± 19 nM

SMILES: N#Cc1c(-c2ccc(O)cc2)nc(N2CCOCC2)nc1N1CCOCC1 [Compound 17f]
- IC50 [5, 20]: 400 to 800 nM
- IC50 [5, 22]: 473 ± 28.3 nM

SMILES: COc1cccc(-c2nc(N3CCOCC3)nc(N3CCOCC3)c2C#N)c1 [Compound 17g]
- IC50 [5, 23]: > 1000 nM
- IC50 [5, 22]: 3270 nM

SMILES: N#Cc1c(-c2ccc(N)cc2)nc(N2CCOCC2)nc1N1CCOCC1 [Compound 17h]
- IC50 [5, 20]: 400 to 800 nM
- IC50 [5, 22]: 477 ± 52.4 nM

SMILES: N#Cc1c(-c2cccnc2)nc(N2CCOCC2)nc1N1CCOCC1 [Compound 17i]
- IC50 [5, 20]: 400 to 800 nM
- IC50 [5, 22]: 792 ± 87.7 nM

SMILES: N#Cc1c(-c2ccncc2)nc(N2CCOCC2)nc1N1CCOCC1 [Compound 17j]
- IC50 [5, 23]: > 1000 nM
- IC50 [5, 22]: 3040 nM

SMILES: N#Cc1c(-c2ccc(N)nc2)nc(N2CCOCC2)nc1N1CCOCC1 [Compound 17k]
- IC50 [5, 20]: 30 to 300 nM
- IC50 [5, 22]: 159 ± 14.4 nM

SMILES: Cc1cc(N)ncc1-c1nc(N2CCOCC2)nc(N2CCOCC2)c1C#N [Compound 17l]
- IC50 [5, 20]: 400 to 800 nM
- IC50 [5, 22]: 443 ± 39.7 nM

SMILES: N#Cc1c(-c2cnc(N)cc2C(F)(F)F)nc(N2CCOCC2)nc1N1CCOCC1 [Compound 17m]
- IC50 DU145 [3]: no inhibitory effects
- IC50 [3]: 12400 ± 1470 nM
- IC50 [5, 20]: 30 to 300 nM
- IC50 [5, 22]: 104 ± 12.5 nM
- IC50 [7]: 2720 ± 190 nM
- IC50 [8]: 1070 ± 90 nM
- IC50 U87MG [9]: no inhibitory effects
- IC50 [9]: 66100 ± 9940 nM

SMILES: N#Cc1c(-c2cncnc2)nc(N2CCOCC2)nc1N1CCOCC1 [Compound 17n]
- IC50 [5, 20]: 400 to 800 nM
- IC50 [5, 22]: 604 ± 103 nM

SMILES: CNc1ncc(-c2nc(N3CCOCC3)nc(N3CCOCC3)c2C#N)cn1 [Compound 17o]
- IC50 [3]: 5050 ± 470 nM
- IC50 [4]: 176 ± 26.3 nM
- IC50 [5, 20]: 30 to 300 nM
- IC50 [5, 21]: 34.7 ± 4.6 nM
- IC50 [5, 22]: 34.7 ± 2.1 nM
- IC50 [6]: 204 ± 22.2 nM
- IC50 [7]: 1130 ± 100 nM
- IC50 [8]: 1160 ± 120 nM
- IC50 [9]: 4190 ± 530 nM
- IC50 [10]: 204 ± 30.1 nM
- IC50 [11]: 176 ± 15.9 nM

SMILES: N#Cc1c(-c2cnc(N)nc2C(F)(F)F)nc(N2CCOCC2)nc1N1CCOCC1 [Compound 17p]
- IC50 [1]: 4620 ± 520 nM
- inhibition of hERG potassium currents [12]: no obvious inhibition
- IC50 [13]: 390 ± 30 nM
- IC50 [2]: 8470 ± 770 nM
- microsomal CLint ([14]; read-out: CL liver microsomes): 10.8 µL/min/mg
- half-life [14, 24]: 2.13 h
- IC50 [3]: 8770 ± 1160 nM
- microsomal CLint ([15]; read-out: CL liver microsomes): 36 µL/min/mg
- half-life [15, 24]: 0.642 h
- Number of bacterial colony revertant mutations (mean ± SD) TA98 ([16]; 3 μg/dish): 38 ± 7
- Number of bacterial colony revertant mutations (mean ± SD) TA98 ([16]; 10 μg/dish): 41 ± 4
- Number of bacterial colony revertant mutations (mean ± SD) TA98 ([16]; 30 μg/dish): 37 ± 11
- Number of bacterial colony revertant mutations (mean ± SD) TA98 ([16]; 100 μg/dish): 43 ± 4
- Number of bacterial colony revertant mutations (mean ± SD) TA98 ([16]; 300 μg/dish): 29 ± 4
- Number of bacterial colony revertant mutations (mean ± SD) TA98 ([16]; 1,000 μg/dish): 44 ± 5
- Number of bacterial colony revertant mutations (mean ± SD) TA98 ([16]; 5,000 μg/dish): 40 ± 4
- mutagenic effect on TA98 ([16]; in words): no mutagenic effect
- IC50 [4]: 125 ± 10.1 nM
- Cl_F_pred ([17]; female SD rats, 2.5 mg/kg iv): 1.5 mL/min/kg
- Cl_F_pred (plasma clearance) ([17]; female SD rats, 10 mg/kg po): 3.3 mL/min/kg
- area under the curve ([17]; female SD rats, 10 mg/kg po): 50,618.9
- Cl_F_pred ([17]; male SD rats, 2.5 mg/kg iv): 16.3 mL/min/kg
- Cl_F_pred ([17]; male SD rats, 10 mg/kg po): 109 mL/min/kg
- AUC(0-t) ([17]; female SD rats, 2.5 mg/kg iv): 27400 ng·h/mL
- Cmax ([17]; female SD rats, 2.5 mg/kg iv): 4280 ng/mL
- half-life ([17]; female SD rats, 2.5 mg/kg iv): 2.79 h
- AUC(0-t) ([17]; female SD rats, 10 mg/kg po): 50600 ng·h/mL
- Cmax ([17]; female SD rats, 10 mg/kg po): 4860 ng/mL
- Tmax ([17]; female SD rats, 10 mg/kg po): 3.33 h
- half-life ([17]; female SD rats, 10 mg/kg po): 2.03 h
- bioavailability ([17]; female SD rats, 10 mg/kg po): 46.2%
- AUC(0-t) ([17]; male SD rats, 2.5 mg/kg iv): 2690 ng·h/mL
- Cmax ([17]; male SD rats, 2.5 mg/kg iv): 3120 ng/mL
- half-life ([17]; male SD rats, 2.5 mg/kg iv): 0.68 h
- AUC(0-t) ([17]; male SD rats, 10 mg/kg po): 1860 ng·h/mL
- Cmax ([17]; male SD rats, 10 mg/kg po): 538 ng/mL
- Tmax ([17]; male SD rats, 10 mg/kg po): 0.67 h
- half-life ([17]; male SD rats, 10 mg/kg po): 3.19 h
- bioavailability ([17]; male SD rats, 10 mg/kg po): 17.3%
- Number of bacterial colony revertant mutations (mean ± SD) TA100 ([18]; 3 μg/dish): 88 ± 7
- Number of bacterial colony revertant mutations (mean ± SD) TA100 ([18]; 10 μg/dish): 92 ± 3
- Number of bacterial colony revertant mutations (mean ± SD) TA100 ([18]; 30 μg/dish): 86 ± 4
- Number of bacterial colony revertant mutations (mean ± SD) TA100 ([18]; 100 μg/dish): 91 ± 6
- Number of bacterial colony revertant mutations (mean ± SD) TA100 ([18]; 300 μg/dish): 90 ± 3
- Number of bacterial colony revertant mutations (mean ± SD) TA100 ([18]; 1,000 μg/dish): 91 ± 1
- Number of bacterial colony revertant mutations (mean ± SD) TA100 ([18]; 5,000 μg/dish): 87 ± 1
- mutagenic effect on TA100 ([18]; in words): no mutagenic effect
- IC50 [5, 20]: 30 to 300 nM
- IC50 [5, 21]: 30.3 ± 3.5 nM
- IC50 [5, 22]: 32.4 ± 4.1 nM
- IC50 [6]: 15.4 ± 1.9 nM
- IC50 [7]: 850 ± 110 nM
- IC50 [8]: 1590 ± 80 nM
- IC50 [9]: 4720 ± 370 nM
- IC50 [10]: 1420 ± 184 nM
- cytotoxicity ED50 (TUNEL, logistic regression) [19]: 5.345 µM
- IC50 [11]: 286 ± 39.6 nM
